PubChem BioAssay (NCI)
Where “and” joins values, the source holds several entries; their conditions need not be identical. Identical values can stand only once.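 1) Cells in 96-well plates. 2) Compound, 48 h, 5 concentrations. 3) Linear interpolation between surrounding doses. 4) Unreached endpoint = highest concentration. GI50 marks 50% less growth. TGI marks complete inhibition of growth.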

Key:
Assay in all cases: inhibition of tumour cell growth, NCI panel, 48 h
SN12C renal = system: SN12C renal
NCI-H226 lung = system: NCI-H226 lung
UACC-62 melanoma = system: UACC-62 melanoma
RXF 393 renal = system: RXF 393 renal
K-562 leukemia = system: K-562 leukemia
KM12 colon = system: KM12 colon
EKVX NSCLC = system: EKVX NSCLC
BT-549 breast = system: BT-549 breast
MDA-MB-435 = system: MDA-MB-435
COLO 205 colon = system: COLO 205 colon
SK-MEL-5 melanoma = system: SK-MEL-5 melanoma
SF-268 CNS = system: SF-268 CNS
HS 578T breast = system: HS 578T breast
SNB-75 CNS = system: SNB-75 CNS

SMILES	TGI (SN12C renal)	TGI (NCI-H226 lung)	TGI (UACC-62 melanoma)	TGI (RXF 393 renal)	TGI (K-562 leukemia)	TGI (KM12 colon)	TGI (EKVX NSCLC)	TGI (BT-549 breast)	TGI (MDA-MB-435)	TGI (COLO 205 colon)	TGI (SK-MEL-5 melanoma)	TGI (SF-268 CNS)	TGI (HS 578T breast)	TGI (SNB-75 CNS)	GI50 (SN12C renal)	GI50 (NCI-H226 lung)	GI50 (EKVX NSCLC)	GI50 (SF-268 CNS)	GI50 (SNB-75 CNS)
CC1=C(S(=O)c2ccc(C)cc2)CCC2(CCCCO2)O1 (stereo unspecified)	> 100 µM	> 100 µM	> 100 µM	> 100 µM	> 100 µM	> 100 µM	> 100 µM	> 100 µM	> 100 µM	> 100 µM	> 100 µM	> 100 µM	> 100 µM	> 100 µM	–	–	–	–	–
N#CC12CC=C(c3ccccc3)N=C1NC(c1ccccc1)=CC2 (stereo unspecified)	> 100 µM	> 100 µM	> 100 µM	> 100 µM	> 100 µM	> 100 µM	> 100 µM	> 100 µM	> 100 µM	> 100 µM	39.4 µM	> 100 µM	> 100 µM	> 100 µM	–	–	–	–	–
CC1C2CC(CC2O)C1(C)C (stereo unspecified)	> 100 µM	> 100 µM	> 100 µM	> 100 µM	> 100 µM	> 100 µM	–	> 100 µM	> 100 µM	> 100 µM	> 100 µM	> 100 µM	> 100 µM	> 100 µM	–	–	–	–	–
CSc1ncc2c(C#N)c3ccccn3c(=O)c2n1	> 100 µM	> 100 µM	> 100 µM	> 100 µM	> 100 µM	> 100 µM	> 100 µM	> 100 µM	> 100 µM	> 100 µM	> 100 µM	> 100 µM	> 100 µM	> 100 µM	–	–	–	–	–
COc1cc(CC(C)N[C@@H](C)c2ccccc2)cc(OC)c1 (stereo partly specified)	24.2 µM and > 100 µM	38.2 µM and > 100 µM	19.8 µM and > 100 µM	> 100 µM	–	> 100 µM	26.4 µM and > 100 µM	20.4 µM and > 100 µM	19.6 µM and > 100 µM	–	–	25.8 µM and > 100 µM	> 100 µM	12.9 µM and > 100 µM	11.8 µM and > 100 µM	15.1 µM and > 100 µM	12.2 µM and > 100 µM	12.3 µM and > 100 µM	2.9 µM and 24.7 µM
Nc1ncnc2c1ccn2CC=C(CO)CO	> 100 µM	> 100 µM	> 100 µM	> 100 µM	> 100 µM	> 100 µM	> 100 µM	> 100 µM	> 100 µM	–	> 100 µM	> 100 µM	> 100 µM	> 100 µM	–	–	–	–	–
CC(=O)OCC1=C2C(OC(=O)C(C)C)CC3(COC(C)=O)OC3/C=C\C3(C)OC3C2OC1=O (stereo unspecified)	> 100 µM	> 100 µM	> 100 µM	> 100 µM	> 100 µM	> 100 µM	> 100 µM	> 100 µM	> 100 µM	> 100 µM	> 100 µM	> 100 µM	> 100 µM	> 100 µM	–	–	–	–	–
O=CN(O)CC(=O)O.[Ni]	> 100 µM	> 100 µM	> 100 µM	> 100 µM	> 100 µM	> 100 µM	> 100 µM	> 100 µM	> 100 µM	> 100 µM	> 100 µM	> 100 µM	> 100 µM	> 100 µM	–	–	–	–	–
CCCC(=O)n1[nH]c(=O)n(C(C)(C)C)c1=O	> 100 µM	> 100 µM	> 100 µM	> 100 µM	> 100 µM	> 100 µM	> 100 µM	> 100 µM	> 100 µM	> 100 µM	> 100 µM	> 100 µM	> 100 µM	> 100 µM	–	–	–	–	–
NS(=O)(=O)c1ccc(N=Nc2ccc(O)c(O)c2)cc1	44.9 µM	40.8 µM	–	34.8 µM	> 100 µM	32.5 µM	> 100 µM	14.4 µM	32.2 µM	40.3 µM	19.7 µM	50.2 µM	67.3 µM	60.8 µM	–	–	–	–	–
COc1ccc(N2C(=O)C(C#N)=C(SC)C(C#N)C2=O)cc1 (stereo unspecified)	> 100 µM	> 100 µM	> 100 µM	> 100 µM	> 100 µM	> 100 µM	> 100 µM	> 100 µM	> 100 µM	> 100 µM	> 100 µM	> 100 µM	89.8 µM	> 100 µM	–	–	–	–	–
Nc1nc(Cl)cc(NCC2(CO)CC(c3ccccc3)C2)n1 (stereo unspecified)	> 100 µM	> 100 µM	> 100 µM	> 100 µM	> 100 µM	> 100 µM	84.5 µM	> 100 µM	> 100 µM	> 100 µM	29.4 µM	> 100 µM	83.8 µM	> 100 µM	–	–	–	–	–
Nc1cccc(/C=C/CN2CCN(CCOC(c3ccccc3)c3ccccc3)CC2)c1	36 µM	40.4 µM	31.7 µM	25.5 µM	16.3 µM	25.4 µM	32 µM	29.9 µM	28.1 µM	20.9 µM	26.8 µM	35.7 µM	48 µM	22.7 µM	–	–	–	–	–
